For 1 compound, Tieren gestorben results are on record in patent publication EP0063826A2, “2-Amino-benzoic-acid derivatives, their preparation and their use as medicines or intermediates” (Dr. Karl Thomae GmbH, priority 1980, dated 1981).

Molecules are shown by their SMILES.

For the data set, the system named is Mäusen. Description: Acute oral toxicity in mice (orienting). Type of data set: in vivo. The conditions noted are these: 2 000 mg/kg by gavage, group of 10, observation 14 days. On the procedure: Die akute Toxizität wurde orientierend an Gruppen von 10 Mäusen (5 weibliche und 5 männliche Mäuse; Beobachtungszeit: 14 Tage) nach Gabe einer Dosis von 2 000 mg/kg pro Tier in Methylcellulose-Suspension per Schlundsonde bestimmt: […]

Compound `O=C(O)c1cc(Cl)ccc1N1CCC2(CC1)OCCO2` [Substanz A, 5-Chlor-2-(1,4-dioxa-8-aza-spiroL4,6/decan-8-yl)-benzoe-säure] showed a Tieren gestorben of 0 von 10.
